Experimental data: patent publication US20230052189A1, “TREATMENT OF PRIMARY BILIARY CHOLANGITIS WITH ELAFIBRANOR” (Genfit, priority 2020, published 2023)

Key:
patients with PBC = conditions: Nevens et al. 2016; cited from earlier work
subjects with PBC [1] = experiment: Phase 2 study: tolerability and safety (TEAEs, pruritus worsening); type: in vivo, human; conditions: for percentage of subjects reporting TEAEs (Treatment-Emergent Adverse Events): placebo 80.0%
Procedure: (§1) The study was a Phase 2, double-blind, randomized, parallel group, placebo-controlled study, designed to evaluate the efficacy and safety of elafibranor at doses of 80 mg or 120 mg daily vs placebo in an adult PBC population. This study projected to randomize approximately 45 subjects to 3 treatment groups in a 1:1:1 ratio (elafibranor 80 mg, elafibranor 120 mg, or placebo).
(§2) Subject participation was planned to be a maximum of 20 weeks. The study was comprised of 3 periods: a Screening Period, a Treatment Period, and a Follow-up Period. The Screening Period (Week −4 to Week −1) preceded the 12-week double-blind Treatment Period.
The tolerability and safety of once-per-day oral administration of elafibranor in 80-mg and 120-mg doses in subjects with PBC was assessed as follows: • Physical examination • Vital signs • Medical history • ECG • Hematological parameters • Liver markers • Other biochemical safety parameters

subjects with PBC [2] = experiment: Phase 2 study: pruritus (itching) domain of PBC-40 quality of life questionnaire; type: in vivo, human; conditions: for median absolute change from baseline to Endpoint in the pruritus/itching domain of PBC-40: placebo 0.0; for median relative change from baseline to Endpoint in the pruritus/itching domain of PBC-40: placebo 0%; for mean absolute change from baseline to Endpoint in the pruritus (itching) domain of PBC-40: placebo 2.1
Procedure: as §1, §2

subjects with PBC [3] = experiment: Phase 2 double-blind placebo-controlled study: change from baseline in serum ALP; type: in vivo, human; conditions: for treatment effect estimate vs placebo, relative change in serum ALP (supportive analysis): ANCOVA with baseline ALP as covariate; for treatment effect estimate vs placebo, relative change in serum ALP (primary analysis): non-parametric randomization-based ANCOVA with baseline ALP as covariate, p<0.001; for mean relative change (%) from baseline to Endpoint in serum ALP: 12-week treatment, placebo 3.2%
Procedure: as §1, §2
A decrease in ALP levels is recognized as a particularly relevant surrogate marker for the treatment of PBC. Consequently the primary endpoint of the study is to evaluate the efficacy of elafibranor 80 mg or 120 mg with respect to relative change from baseline in serum ALP levels compared to placebo.

subjects with PBC [4] = experiment: Phase 2 study: change from baseline in pruritus visual analogue scale (VAS); type: in vivo, human; conditions: for median relative change from baseline to Endpoint in the pruritus VAS: placebo −7.1%
Procedure: as §1, §2
Considering that pruritus is a preeminent adverse event in subjects with PBC, assessment of pruritus was also considered. More specifically, the change from baseline in pruritus (through 5D-itch scale (measuring the degree, duration, direction [improvement or worsening], disability [effect on daily activities], and distribution of itching) and visual analogue scale for pruritus (VAS).
The 5D-itch scale is a reliable, multidimensional measure of itching that has been validated in patients with chronic pruritus to detect changes over time (Elman S, et al., The 5-D itch scale: a new measure of pruritus. Br J Dermatol. 2010; 162(3):587-593.). The VAS is a reliable and validated method of pruritus assessment (Reich A, et al., Visual analogue scale: evaluation of the instrument for the assessment of pruritus. Acta Derm Venereol.2012; 92(5):497-501).
Pruritus scoring values and absolute changes from baseline are provided for each domain of the 5D-itch scale (duration, degree, direction, disability, and distribution) and for the VAS by subject and by visit; baseline and Endpoint values are flagged in this listing; total scores at each visit are also summarized in this listing.

[5] = 80 mg and 120 mg treatment groups

## CC[C@H]1[C@@H](O)[C@@H]2[C@H](CC[C@]3(C)[C@@H]([C@H](C)CCC(=O)O)CC[C@@H]23)[C@@]2(C)CC[C@@H](O)C[C@@H]12 [OCA, obeticholic acid]
Patients with PBC
  pruritus adverse event: severe pruritus has been reported

## CSc1ccc(C(=O)C=Cc2cc(C)c(OC(C)(C)C(=O)O)c(C)c2)cc1 [elafibranor, 2-(2,6-dimethyl-4-{3-[4-(methylsulfanyl)phenyl]-3-oxopropen-1-yl}phenoxy)-2-methylpropanoic acid]
Subjects with PBC [1]; 80 mg and 120 mg
  safety and tolerability in patients: safe and well-tolerated
  worsening of pruritus: no worsening of pruritus
Subjects with PBC [1]; 80 mg
  percentage of subjects reporting TEAEs (Treatment-Emergent Adverse Events): 80.0%
Subjects with PBC [1]; 120 mg
  percentage of subjects reporting TEAEs (Treatment-Emergent Adverse Events): 86.7%
Subjects with PBC [2]; 80 mg
  median absolute change from baseline to Endpoint in the pruritus/itching domain of PBC-40: −1.0
  median relative change from baseline to Endpoint in the pruritus/itching domain of PBC-40: −25.0%
  mean absolute change from baseline to Endpoint in the pruritus (itching) domain of PBC-40: −0.9
Subjects with PBC [2]; 120 mg
  median absolute change from baseline to Endpoint in the pruritus/itching domain of PBC-40: −1.0
  median relative change from baseline to Endpoint in the pruritus/itching domain of PBC-40: −20.8%
  mean absolute change from baseline to Endpoint in the pruritus (itching) domain of PBC-40: −4.1
Subjects with PBC [3]; [5]
  change from baseline in serum ALP vs placebo at Endpoint (significance): statistically significantly different from placebo
Subjects with PBC [3]; 80 mg and 120 mg treatment groups, 12 week study
  mean ALP values from baseline through Week 12 (trend): declining mean ALP values
Subjects with PBC [3]; 80 mg, 95% CI [−63.3, −39.5]
  treatment effect estimate vs placebo, relative change in serum ALP (supportive analysis): −51.4%
Subjects with PBC [3]; 80 mg, 95% CI [−62.5, −41.5]
  treatment effect estimate vs placebo, relative change in serum ALP (primary analysis): −52.0%
Subjects with PBC [3]; 120 mg, 95% CI [−55.8, −31.9]
  treatment effect estimate vs placebo, relative change in serum ALP (supportive analysis): −43.9%
Subjects with PBC [3]; 120 mg, 95% CI [−55.7, −32.1]
  treatment effect estimate vs placebo, relative change in serum ALP (primary analysis): −43.9%
Subjects with PBC [3]; elafibranor 80 mg daily oral
  mean relative change (%) from baseline to Endpoint in serum ALP: −48.3%
Subjects with PBC [3]; elafibranor 120 mg daily oral
  mean relative change (%) from baseline to Endpoint in serum ALP: −40.6%
Subjects with PBC [4]; [5]
  median pruritus VAS from baseline through Week 12 (trend): declining median VAS as early as Week 2
Subjects with PBC [4]; 80 mg
  median relative change from baseline to Endpoint in the pruritus VAS: −23.7%
Subjects with PBC [4]; 120 mg
  median relative change from baseline to Endpoint in the pruritus VAS: −49.5%
